According to patent US8697874B2, “Heterocyclic compound and use thereof” (Takeda Pharmaceutical Company Limited, priority 2008, dated 2014):
Values belong to the compound of their own block, whether it stands above or below them.

Key:
BRAF (V600E) kinase = biological target: T1, BRAF (V600E) kinase (Homo sapiens, UniProt P15056, V600E); test: Determination of BRAF (V600E) kinase inhibitory activity; type: biochemical; conditions: compound 1.0 μm; substrate GSTP1-MEK1 (K96R), [γ-32P]ATP
T1 construct: area encoding the BRAF kinase domain region, so that the protein contains an N-terminal Flag; made in house; host or cells: SF-21 insect cells infected with recombinant baculovirus BAC-V600E
Experimental: Determination of BRAF (V600E) Kinase Inhibitory Activity
A test compound (2.5 μL) dissolved in dimethyl sulfoxide (DMSO) was added to 37.5 μL of a reaction solution (25 mM HEPES (pH 7.5), 10 mM magnesium acetate, 1 mM dithiothreitol) containing 30 ng of BRAF (V600E) enzyme and 250 ng of recombinant protein GSTP1-MEK1 (K96R) prepared using FreeStyle 293 expression system (Invitrogen), and the mixture was incubated at room temperature for 10 min. 10 μL of ATP solution (2.5 μM ATP, 0.1 μCi [γ-^32P]ATP) was added to the obtained mixture, and the mixture was reacted at room temperature for 20 min. The reaction was quenched by adding 50 μL of ice-cooled 20% trichloroacetic acid (Wako Pure Chemical Industries, Ltd.) to the reaction solution. The reaction solution was allowed to stand at 4° C. for 30 min., and the acid-precipitable fraction was transferred to GF/C filter plate (Millipore Corporation) using cell harvester (PerkinElmer). The plate was dried at 45° C. for 60 min., and 40 μL of MicroScinti 0 (PerkinElmer) was added thereto. The radioactivity was measured using TopCount (PerkinElmer). The kinase inhibitory rate (%) of the test compound was calculated by the following formula: Inhibitory rate (%)=(1−(count of test compound−blank)÷(control−blank))×100
The count of the solution reacted without addition of the compound was used as a “control”, and the count of the solution without the compound and enzyme was used as a “blank”.

[1] = test system: MEK1/2 phosphorylation in human colorectal cancer cell HT-29; test: Colorectal cancer cell HT-29 intracellular MEK phosphorylation inhibitory activity in vitro; type: cell-based; conditions: HT-29 cells; for IC50: 2 hrs treatment, phosphorylated MEK1/2 by Western blot; for inhibition at 0.5 µM: MEK1/2 protein phosphorylation, compound 0.5 μM, 2 hrs, read-out: inhibitory rate (%) at 0.5 μM
Experimental: Colorectal Cancer Cell HT-29 Intracellular MEK Phosphorylation Inhibitory Activity In Vitro
500 μL of a cell suspension of human colorectal cancer cell HT-29 (purchased from American Type Culture Collection (ATCC)) was plated in a 48-well plate (100,000 cells/well), and the cells were cultured overnight at 37° C. in the presence of 5% CO2, treated with a test compound (250 μL/well) diluted in 3-fold dilution series and cultured for 2 hrs. After 2 hrs, the culture medium containing the test compound was removed, and the cells were lysed with SDS sample buffer (100 μL/well) and heated at 95° C. for 5 min. Thereafter, the cells lysed with SDS sample buffer were applied to SDS-PAGE, and the protein was transferred onto Sequi-Blot™ PVDF Membrane (Bio-Rad) by the Western blot method. The PDVF membrane was blocked with a Block-Ace solution (Snow Brand Milk Products Co., Ltd) dissolved in phosphate buffered saline (MP Biochemicals) to 5% W/V, and reacted overnight with anti-phosphorylated MEK1/2 (Ser217/221) (Cell signaling) diluted 1000-fold with phosphate buffered saline containing 0.4% Block-Ace. The membrane was washed with phosphate buffered saline containing 0.1% Tween 20 (Wako Pure Chemical Industries, Ltd.), and reacted at room temperature for 1 hr with HRP labeled rabbit IgG polyclonal antibody (Cell signaling) diluted 1000-fold with phosphate buffered saline containing 0.4% Block-Ace. The membrane was washed in the same manner as above, chemical luminescence of a phosphorylated MEK1/2 protein labeled with the antibody, which was caused by ECL-plus Detection Reagent (Amersham bioscience), was detected by Luminescent Image Analyzer LAS-1000 (FUJIFILM Corporation). Taking the luminescence of the control group free of the test compound as 100%, the concentration (IC50 value) of the compound necessary for inhibiting the residual luminescence to 50% of the control group was calculated. The results are shown in Table 3-A. In addition, MEK1/2 protein phosphorylation inhibitory rate (%) of the test compound at compound concentration 0.5 μM was calculated by the following formula. The results are shown in Table 3-B. Inhibitory rate (%)=(1−(luminescence of test compound−blank)÷(luminescence of control group−blank))×100

[2] = test system: human colorectal cancer cell HT-29; test: Colorectal cancer cell HT-29 growth suppressive activity in vitro; type: cell-based; conditions: 72 h, HT-29 cells, SRB staining; for IC50: 3 days culture; for inhibition at 5 µM: cell proliferation, compound 5.0 μM, 3 days, read-out: inhibitory rate (%) at 5.0 μM
Experimental: Colorectal Cancer Cell HT-29 Growth Suppressive Activity in Vitro
100 μL of a cell suspension (3,000 cells/well) of human colorectal cancer cell HT-29 (purchased from ATCC) was plated in a 96-well plate, and the cells were cultured at 37° C. in a 5% CO2 gas incubator. The next day, 100 μL of each test compound solution diluted in 2-fold serial dilution, diluted from maximum concentration 20 μM, was added, and the cells were cultured for 3 days. As for Example 44, 100 μl of each test compound solution (4-fold serially diluted, diluted from maximum concentration 20 μM) was added, and the cells were cultured for 3 days. The culture medium containing the test compound was removed, and the cells were washed with phosphate buffered saline (PBS). A 50% trichloroacetic acid solution was added to the final concentration of 10% (v/v), and the mixture was stood overnight at 4° C., whereby the cells were fixed to the plate. Then, a dye SRB 0.4% (w/v) solution (dissolved in 1% acetic acid) was added at 50 μl/well, whereby the cell protein was fixed and stained (Skehan et al., Journal Of National Cancer Institute, vol. 82, pp. 1107-1112, 1990). The cells were washed 3 times with 1% acetic acid solution (200 μL/well), and 100 μL of an extract (10 mM Tris buffer) was added to extract the dye. The absorbance at an absorption wavelength 550 nm was measured, and cell amount was measured as a protein amount. Taking the protein amount of the control group free of the test compound solution as 100%, the proportion of the residual protein amount of each treatment group was determined and the concentration of the compound necessary for suppressing the residual cell amount to 50% of the control (IC50 value) was calculated. The results are shown in Table 4-A. In addition, cell proliferation inhibitory rate (%) of the test compound at compound concentration 5.0 μM was calculated by the following formula. The results are shown in Table 4-B. Inhibitory rate (%)=(1−(absorbance of test compound−blank)÷(absorbance of control group−blank))×100

T1 sequence (P15056 457-717 V600E limits assumed): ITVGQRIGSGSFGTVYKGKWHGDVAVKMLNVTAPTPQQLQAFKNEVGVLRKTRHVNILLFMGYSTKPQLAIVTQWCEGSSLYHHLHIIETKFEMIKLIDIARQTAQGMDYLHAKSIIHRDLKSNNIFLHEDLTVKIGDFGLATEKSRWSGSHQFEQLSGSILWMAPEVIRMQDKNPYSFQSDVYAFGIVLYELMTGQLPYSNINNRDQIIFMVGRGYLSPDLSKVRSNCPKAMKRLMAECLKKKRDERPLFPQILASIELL

Compound: CN(c1ccc(F)c(NC(=O)Nc2ccc(C(F)(F)F)cc2)c1)c1ccc2nc(NC(=O)C3CC3)sc2n1 [Example 1, N-(5-{[4-fluoro-3-({[4-(trifluoromethyl)phenyl]carbamoyl}amino)phenyl](methyl)amino}[1,3]thiazolo[5,4-b]pyridin-2-yl)cyclopropanecarboxamide]
inhibitory rate (%) at 1.0 μm (BRAF (V600E) kinase): 98%

Compound: CN(c1ccc(F)c(NC(=O)Nc2ccc(C(C)(C)C)cc2)c1)c1ccc2nc(NC(=O)C3CC3)sc2n1 [Example 3, N-{5-[(3-{[(4-tert-butylphenyl)carbamoyl]amino-}-4-fluorophenyl)(methyl)amino][1,3]thiazolo[5,4-b]pyridin-2-yl}cyclopropanecarboxamide]
IC50 [1]: < 300 nM
inhibition at 0.5 µM [1]: 94%

Compound: CN(c1cccc(NC(=O)Nc2ccc(OC(F)(F)F)cc2)c1)c1ccc2nc(NC(=O)C3CC3)sc2n1 [Example 9, N-(5-{methyl[3-({[4-(trifluoromethoxy)phenyl]carbamoyl}amino)phenyl]amino}[1,3]thiazolo[5,4-b]pyridin-2-yl)cyclopropanecarboxamide]
IC50 [2]: < 500 nM
inhibition at 5 µM [2]: 100%

Compound: CN(c1cccc(NC(=O)Nc2ccc(Cl)c(C(F)(F)F)c2)c1)c1ccc2nc(NC(=O)C3CC3)sc2n1 [Example 11, N-(5-{[3-({[4-chloro-3-(trifluoromethyl)phenyl]carbamoyl}amino)phenyl](methyl)amino}[1,3]thiazolo[5,4-b]pyridin-2-yl)cyclopropanecarboxamide]
inhibitory rate (%) at 1.0 μm (BRAF (V600E) kinase): 99%

Compound: O=C(Nc1ccc(Cl)c(C(F)(F)F)c1)Nc1cc(Nc2ccc3nc(NC(=O)C4CC4)sc3n2)ccc1F [Example 13, N-(5-{[3-({[4-chloro-3-(trifluoromethyl)phenyl]carbamoyl}amino)-4-fluorophenyl]amino}[1,3]thiazolo[5,4-b]pyridin-2-yl)cyclopropanecarboxamide]
IC50 [1]: < 300 nM
inhibition at 0.5 µM [1]: 98%

Compound: O=C(Cc1ccccc1C(F)(F)F)Nc1cc(Oc2ccc3nc(NC(=O)C4CC4)sc3n2)ccc1F [Example 19, N-{5-[4-fluoro-3-({[2-(trifluoromethyl)phenyl]acetyl}amino)phenoxy][1,3]thiazolo[5,4-b]pyridin-2-yl}cyclopropanecarboxamide]
inhibitory rate (%) at 1.0 μm (BRAF (V600E) kinase): 100%

Compound: O=C(Cc1cccc(C(F)(F)F)c1)Nc1cc(Oc2ccc3nc(NC(=O)C4CC4)sc3n2)ccc1F [Example 22, N-{5-[4-fluoro-3-({[3-(trifluoromethyl)phenyl]acetyl}amino)phenoxy][1,3]thiazolo[5,4-b]pyridin-2-yl}cyclopropanecarboxamide]
inhibition at 0.5 µM [1]: 88%

Further lines, with some results ahead:

inhibitory rate (%) at 1.0 μm (BRAF (V600E) kinase): 98%
Compound: O=C(Cc1ccc(C(F)(F)F)cc1)Nc1cc(Oc2ccc3nc(NC(=O)C4CC4)sc3n2)ccc1F [Example 21, N-{5-[4-fluoro-3-[{(4-(trifluoromethyl)phenyl]acetyl}amino)phenoxy][1,3]thiazolo[5,4-b]pyridin-2-yl}cyclopropanecarboxamide]

IC50 [1]: < 300 nM
Compound: O=C(Nc1cccc(C(F)(F)F)c1)Nc1cc(Oc2ccc3nc(NC(=O)C4CC4)sc3n2)ccc1F [Example 23, N-{5-[4-fluoro-3-({[3-(trifluoromethyl)phenyl]carbamoyl}amino)phenoxy][1,3]thiazolo[5,4-b]pyridin-2-yl}cyclopropanecarboxamide]
inhibition at 0.5 µM [1]: 88%

IC50 [2]: < 500 nM
Compound: O=C(Nc1ccc(C(F)(F)F)nc1)Nc1cc(Oc2ccc3nc(NC(=O)C4CC4)sc3n2)ccc1F [Example 29, N-{5-[4-fluoro-3-({[6-(trifluoromethyl)pyridin-3-yl]carbamoyl}amino)phenoxy][1,3]thiazolo[5,4-b]pyridin-2-yl}cyclopropanecarboxamide]
inhibition at 5 µM [2]: 74%

IC50 [2]: < 500 nM
Compound: Cc1ccc(NC(=O)Cc2ccsc2)cc1Oc1ccc2nc(NC(=O)C3CC3)sc2n1 [Example 44, N-(5-{2-methyl-5-[(thiophen-3-ylacetyl)amino]-phenoxy} [1,3]thia-zolo[5,4-b]pyridin-2-yl)cyclo-propanecarboxamide]
inhibition at 5 µM [2]: 98%
